Measurements from ChEMBL document CHEMBL6109151, “Discovery of a Novel Dihydroisoquinolinone Derivative as a Potent CDK9 Inhibitor Capable of Overcoming L156F Mutant for the Treatment of Hematologic Malignancies” (J Med Chem, 2025).

What was measured:
Details in all cases: male, Sprague-Dawley, rat, iv, 1 mg/kg
in vivo [1] = assay: in vivo
in vivo [2] = assay: in vivo; remark: listed apart in the source
in vivo [3] = assay: in vivo; remark: listed apart in the source
in vivo [4] = assay: in vivo; remark: listed apart in the source

Compound: COc1cc(F)ccc1-c1cc(Nc2cc(CS(C)(=N)=O)ccn2)ncc1F (centres undefined) [ENITOCICLIB]
- half-life at 8 h (in vivo [1]): 1.1 h
- AUC(0-t) at 8 h (in vivo [2]): 1190 ng·h/mL
- Vd at 8 h (in vivo [3]): 1.11 L/kg
- clearance at 8 h (in vivo [4]): 14 mL/min/kg
